Assay [1] deals with maize pollen. Description: Protective compounds: prevention of pollen bursting on germination media. In kind it is cell-based. As to conditions: loose pollen soaked 20 minutes, compared with fresh pollen without protection. On the procedure:
In this example, various putative protective compounds were evaluated for their efficacy in preventing pollen from bursting on germination media. Nine different chemical treatments were applied to loose pollen shed from maize plants. Pollen was soaked in chemical solution for 20 minutes and then placed on media to observe the impact on pollen viability and compared with fresh pollen without protection as control.

The subject of assay [2] is maize pollen. Description: Pollen tube formation with germination media comprising surfactant. The class given is cell-based. As to conditions: surfactant at both 0.01% and 0.1% in germination media, pollen stored 1° C. for a day, within two hours. On the procedure:
Maize pollen was stored in 326C media with 1000 mM Sucrose and 500 mM Betaine at a pH of 9.0. Pollen was stored at 1° C. for a day. After this time period, germination medias comprising surfactant were added in amounts up to five times the volume of storage media. Surfactant conditions tested were 0.1% Tween 20, 0.01% Tween 20, 0.1% Pluronic F68, and 0.01% Pluronic F68 (final concentration). Pollen was observed microscopically prior to replacement of media and two hours after replacement. Pluronic F68, also known as poloxamer 188, is a non-ionic surfactant, a member of a class of polaxamers comprising non-ionic triblock copolymers composed of a central hydrophobic chain of polyoxypropylene flanked by two hydrophilic chains of polyoxyethylene.

As to `C[S+](C)[O-]` [5% DMSO, DMSO], in the assay with maize pollen [1], the “Preventing pollen from bursting on germination media” value was “did not prevent pollen from bursting”. On to Tween 20, for which the Pollen tube formation result in the assay with maize pollen [2] is “lysis but no pollen tube formation”.

Source of the values: US20220110318A1, “COMPOSITIONS AND METHODS FOR POLLEN STORAGE AND PRESERVATION” (PIONEER HI-BRED INTERNATIONAL, INC., priority 2018, published 2022).
